Data reported in paper PMC10298979, “Assessments of Alpha-Amylase Inhibitory Potential of Tagetes Flavonoids through In Vitro, Molecular Docking, and Molecular Dynamics Simulation Studies” (International Journal of Molecular Sciences, 2023).

Legend:
[1] = no reference given; cited from earlier work
alpha-amylase = test: in vitro alpha-amylase inhibition (AAI) assay, Ultra-Amylase EnzChek Assay Kit; assay type: biochemical
Excerpt: The AAI capacity of T. minuta flavonoids was estimated using an Ultra-Amylase®Enz-Chek Assay Kit in line with a formerly reported method.

[2] = set-up: method as in PMID 24599122, PMID 16168446; conditions: cited from earlier work; for IC50 for DPPH: radical scavenging
[3] = set-up: method as in PMID 24599122, PMID 16168446; conditions: cited from earlier work
[4] = tested on: PE (phenylephrine)-precontracted thoracic aortic rings; set-up: method as in PMID 23763258; conditions: PE-precontracted thoracic aortic rings in rats; cited from earlier work

Compound	IC50 (alpha-amylase) [µM]	other results
C[C@H]1O[C@H](O[C@H]2[C@H](O)[C@@H](O)[C@@H](O[C@H]3[C@H](O)[C@@H](O)C(O)O[C@@H]3CO)O[C@@H]2CO)[C@H](O)[C@@H](O)[C@@H]1N[C@H]1C=C(CO)[C@@H](O)[C@H](O)[C@H]1O (stereo partly shown) [Acarbose]		oral dose absorbed into the bloodstream [1]: 2%; oral dose eliminated through fecal excretion [1]: approximately 51%
O=C(C=Cc1ccc(O)c(O)c1)OCC1OC(Oc2c(O)cc3oc(-c4ccc(O)c(O)c4)c(O)c(=O)c3c2O)C(O)C(O)C1O [Compound 1, quercetagetin-6-O-(6-O-caffeoyl-β-D-glucopyranoside)]	10.1	DPPH scavenging [2]: 89.1%
O=c1c(O)c(-c2ccc(O)c(O)c2)oc2cc(OC3OC(CO)C(O)C(O)C3O)c(O)c(O)c12 [Compound 2, quercetagetin-7-O-β-D-glucopyranoside]	7.8	%inhibition for superoxide anion [3]: 82.85%; IC50 for DPPH [2]: 3.92 µg/mL; vasorelaxation [4]: vasorelaxation potential
O=c1c(O)c(-c2ccc(O)c(O)c2)oc2cc(O)c(OC3OC(CO)C(O)C(O)C3O)c(O)c12 [Compound 3, quercetagetin-6-O-β-D-glucopyranoside]	8.9	
CCCCCC(=O)OCC1OC(Oc2c(O)cc3oc(-c4ccc(O)c(O)c4)c(O)c(=O)c3c2O)C(O)C(O)C1O (stereo not shown) [Compound 4, minutaside A]	9.2	
COc1c(OC2OC(CO)C(O)C(O)C2O)cc2oc(-c3ccc(O)c(O)c3)c(O)c(=O)c2c1O [Compound 5, patuletin-7-O-β-D-glucopyranoside]	8.1	IC50 for DPPH [2]: 12.1 µg/mL
COc1cc2oc(-c3ccc(O)c(O)c3)c(O)c(=O)c2c(O)c1O[C@@H]1O[C@H](CO)[C@@H](O)[C@H](O)[C@H]1O [Compound 6, quercetagetin-7-methoxy-6-O-β-D-glucopyranoside]	9.7	
COc1c(-c2ccc(O)c(O)c2)oc2c(O)c(O)c(O[C@@H]3O[C@H](CO)[C@@H](O)[C@H](O)[C@H]3O)c(O)c2c1=O [Compound 7, tagenol B]	10.8	
COc1c(O)cc2oc(-c3ccc(O)c(O)c3)c(O)c(=O)c2c1O [Compound 8, patuletin]	13.6	
COc1cc2oc(-c3ccc(O)c(O)c3)c(OC)c(=O)c2c(O)c1O[C@@H]1O[C@H](CO)[C@@H](O)[C@H](O)[C@H]1O [Compound 9, quercetagetin-3,7-dimethoxy-6-O-β-D-glucopyranoside]	12.7	
COc1c(-c2ccc(O)c(O)c2)oc2cc(O)cc(O)c2c1=O [Compound 10, quercetin-3-methyl ether]	26.9	
COc1c(O)cc2oc(-c3ccc(O)c(O)c3)c(OC)c(=O)c2c1O [Compound 11, quercetin-3,6-dimethyl ether]	21.7	
COc1ccc(-c2oc3c(O)c(O)c(OC)c(O)c3c(=O)c2OC)cc1O [Compound 12, tagenol A]	14.9	
